Measured values reported in PubChem BioAssay AID330 (DTP/NCI, 2004).
Inconclusive results and toxic doses are left out. The calls were made as follows: active = survival T/C of 150% or more; inactive = T/C below 125% in these data.

Test system: P388 leukemia ip, CD2F1 mice, survival T/C
Experiment: NCI In Vivo Anticancer Drug Screen. Data for tumor model P388 Leukemia (intraperitoneal) in CD2F1 (CDF1) mice
Settings: endpoint: median survival time, higher = longer survival
Outline: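 Mice carrying the transplanted tumor received test compound or vehicle. Survival was recorded in each group, and the value is the treated-group measurement divided by that of the vehicle-treated control group.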

[1] = dose: 50.0 mg/kg/injection, schedule: Q01DX009 (ip), vehicle: Klucel (hydroxypropylcellulose) (HPC)
[2] = dose: 100.0 mg/kg/injection, schedule: Q01DX009 (ip), vehicle: Klucel (hydroxypropylcellulose) (HPC)
[3] = dose: 60.0 mg/kg/injection, schedule: Q01DX005 (ip), vehicle: saline with Tween-80
[4] = dose: 120.0 mg/kg/injection, schedule: Q01DX005 (ip), vehicle: saline with Tween-80
[5] = dose: 240.0 mg/kg/injection, schedule: Q01DX005 (ip), vehicle: saline with Tween-80
[6] = dose: 12.5 mg/kg/injection, schedule: Q04DX003 (ip), vehicle: saline
[7] = dose: 25.0 mg/kg/injection, schedule: Q04DX003 (ip), vehicle: saline
[8] = dose: 50.0 mg/kg/injection, schedule: Q01DX005 (ip), vehicle: Klucel (hydroxypropylcellulose) (HPC)
[9] = dose: 100.0 mg/kg/injection, schedule: Q01DX005 (ip), vehicle: Klucel (hydroxypropylcellulose) (HPC)
[10] = dose: 200.0 mg/kg/injection, schedule: Q01DX005 (ip), vehicle: Klucel (hydroxypropylcellulose) (HPC)
[11] = dose: 50.0 mg/kg/injection, schedule: Q04DX003 (ip), vehicle: saline with Tween-80
[12] = dose: 100.0 mg/kg/injection, schedule: Q04DX003 (ip), vehicle: saline with Tween-80
[13] = dose: 200.0 mg/kg/injection, schedule: Q04DX003 (ip), vehicle: saline with Tween-80
[14] = dose: 50.0 mg/kg/injection, schedule: Q01DX009 (ip), vehicle: saline with Tween-80
[15] = dose: 100.0 mg/kg/injection, schedule: Q01DX009 (ip), vehicle: saline with Tween-80
[16] = dose: 50.0 mg/kg/injection, schedule: Q01DX009 (ip), vehicle: saline
[17] = dose: 100.0 mg/kg/injection, schedule: Q01DX009 (ip), vehicle: saline
[18] = dose: 200.0 mg/kg/injection, schedule: Q01DX009 (ip), vehicle: saline
[19] = dose: 50.0 mg/kg/injection, schedule: Q01DX005 (ip), vehicle: saline with Tween-80
[20] = dose: 100.0 mg/kg/injection, schedule: Q01DX005 (ip), vehicle: saline with Tween-80
[21] = dose: 200.0 mg/kg/injection, schedule: Q01DX005 (ip), vehicle: saline with Tween-80

Measured: T/C

NC(=O)Nc1ccc(Cl)cc1[N+](=O)[O-]
inactive: dose: 37.5 mg/kg/injection, schedule: Q01DX009 (ip), vehicle: Klucel (hydroxypropylcellulose) (HPC) 99 % of control | dose: 75.0 mg/kg/injection, schedule: Q01DX009 (ip), vehicle: Klucel (hydroxypropylcellulose) (HPC) 98 % of control

c1cc2c3c(cccc3c1)-c1nc3ccccc3nc1-2
inactive: dose: 25.0 mg/kg/injection, schedule: Q01DX009 (ip), vehicle: Klucel (hydroxypropylcellulose) (HPC) 101 % of control | [1] 100 % of control | [2] 92 % of control

COC(=O)C1c2c(C)cc3n2C(C=CC3)C1C(=O)OC (centres undefined)
inactive: dose: 100.0 mg/kg/injection, schedule: Q04DX003 (ip), vehicle: Klucel (hydroxypropylcellulose) (HPC) 94 % of control | dose: 200.0 mg/kg/injection, schedule: Q04DX003 (ip), vehicle: Klucel (hydroxypropylcellulose) (HPC) 93 % of control | dose: 400.0 mg/kg/injection, schedule: Q04DX003 (ip), vehicle: Klucel (hydroxypropylcellulose) (HPC) 101 % of control

CCC1(O)CC2C3C(C(=O)OC)=C4Nc5ccccc5C45CCN(C31)C25 (centres undefined)
inactive: dose: 1.0 mg/kg/injection, schedule: Q01DX001 (ip), vehicle: water 100 % of control | dose: 2.0 mg/kg/injection, schedule: Q01DX001 (ip), vehicle: water 100 % of control | dose: 4.0 mg/kg/injection, schedule: Q01DX001 (ip), vehicle: water 101 % of control | dose: 8.0 mg/kg/injection, schedule: Q01DX001 (ip), vehicle: water 92 % of control | dose: 16.0 mg/kg/injection, schedule: Q01DX001 (ip), vehicle: water 95 % of control | dose: 32.0 mg/kg/injection, schedule: Q01DX001 (ip), vehicle: water 99 % of control

CCc1cccc(CC)c1NC1=C(Cl)C(=O)c2ccccc2C1=O
inactive: [3] 100 % of control | [4] 94 % of control | [5] 104 % of control

FC(F)(F)c1ccc2c(c1)N(CCCN1CCN(CCCl)CC1)c1ccccc1S2
inactive: dose: 6.25 mg/kg/injection, schedule: Q04DX003 (ip), vehicle: saline 96 % of control | [6] 101 % of control | [7] 115 % of control

CC(=O)Oc1ccccc1C(=O)OC(C)c1ccccc1 (centres undefined)
inactive: [8] 100 % of control | [9] 98 % of control | [10] 104 % of control

CCCCCCCCCCC(CCCCCCCCCC)c1ccccc1
inactive: dose: 75.0 mg/kg/injection, schedule: Q01DX001 (ip), vehicle: saline sonified 91 % of control | dose: 150.0 mg/kg/injection, schedule: Q01DX001 (ip), vehicle: saline sonified 95 % of control | dose: 300.0 mg/kg/injection, schedule: Q01DX001 (ip), vehicle: saline sonified 95 % of control

CN(C)CC1CC/C=C\C(c2ccccc2)N(C)C1c1ccccc1 (centres undefined)
inactive: dose: 100.0 mg/kg/injection, schedule: Q04DX003 (ip), vehicle: suspension in saline 105 % of control | dose: 200.0 mg/kg/injection, schedule: Q04DX003 (ip), vehicle: suspension in saline 116 % of control | dose: 400.0 mg/kg/injection, schedule: Q04DX003 (ip), vehicle: suspension in saline 99 % of control

O=C(NC(Cc1ccccc1)C(=O)O)C(Cl)Cl (centres undefined)
inactive: [8] 91 % of control | [9] 100 % of control | [10] 100 % of control

CCCCOC(=O)CSSCC(=O)OCCCC
inactive: [11] 109 % of control | [12] 109 % of control | [13] 109 % of control

COc1ccc2c(c1)CCc1cc(OC)ccc1/[N+]([O-])=[N+]\2[O-]
inactive: [3] 93 % of control | [4] 93 % of control | [5] 101 % of control

COc1cccc(OC)c1OCCN1C(=O)c2ccccc2C1=O
inactive: [1] 100 % of control | [2] 100 % of control | dose: 200.0 mg/kg/injection, schedule: Q01DX009 (ip), vehicle: Klucel (hydroxypropylcellulose) (HPC) 105 % of control

COc1ccc(CC(CO)NC(=O)c2ccccc2)cc1 (centres undefined)
inactive: dose: 100.0 mg/kg/injection, schedule: Q04DX002 (ip), vehicle: Klucel (hydroxypropylcellulose) (HPC) 101 % of control | dose: 200.0 mg/kg/injection, schedule: Q04DX002 (ip), vehicle: Klucel (hydroxypropylcellulose) (HPC) 108 % of control | dose: 400.0 mg/kg/injection, schedule: Q04DX002 (ip), vehicle: Klucel (hydroxypropylcellulose) (HPC) 94 % of control

Cc1cc(C(=O)N/N=C/c2cc(Cl)cc(Cl)c2O)c2cc(Br)ccc2n1
inactive: [14] 91 % of control | [15] 91 % of control | dose: 200.0 mg/kg/injection, schedule: Q01DX009 (ip), vehicle: saline with Tween-80 93 % of control

ClC(Cl)(Cl)C(Cl)(Cl)c1ccc(C(Cl)(Cl)C(Cl)(Cl)Cl)cc1
inactive: dose: 132.0 mg/kg/injection, schedule: Q04DX003 (ip), vehicle: saline with Tween-80 100 % of control | [13] 100 % of control | dose: 300.0 mg/kg/injection, schedule: Q04DX003 (ip), vehicle: saline with Tween-80 100 % of control

O=c1[nH]c2nc(SCc3ccccc3)n(Cc3ccccc3)c2c(=O)n1OS(=O)(=O)c1ccccc1
inactive: [3] 98 % of control | [4] 90 % of control | [5] 90 % of control

COc1c2c(c3c(c1CCC(=O)O)OC(C)(C)C=C3)OC(C)(C)C=C2
inactive: [8] 102 % of control | [9] 100 % of control | [10] 102 % of control

CSC(C)(C(=N)C#N)N(C)C (centres undefined)
inactive: [6] 103 % of control | [7] 100 % of control | dose: 50.0 mg/kg/injection, schedule: Q04DX003 (ip), vehicle: saline 104 % of control

C/C(=C\c1ccc(Cl)cc1)C(=O)N1CCN(c2ccccc2)CC1
inactive: [8] 105 % of control | [9] 91 % of control | [10] 96 % of control

COc1c2c(c(OC)c3c1C(=O)C(=O)C=C3O)OCO2
inactive: dose: 60.0 mg/kg/injection, schedule: Q01DX005 (ip), vehicle: Klucel (hydroxypropylcellulose) (HPC) 104 % of control | dose: 120.0 mg/kg/injection, schedule: Q01DX005 (ip), vehicle: Klucel (hydroxypropylcellulose) (HPC) 113 % of control

Cc1ccc(NC(=O)Oc2ccc(Br)cc2Br)c([N+](=O)[O-])c1
inactive: [14] 115 % of control | [11] 115 % of control | [15] 115 % of control | [12] 96 % of control | [13] 99 % of control | dose: 400.0 mg/kg/injection, schedule: Q04DX003 (ip), vehicle: saline with Tween-80 115 % of control

CNC(=S)N/N=C(/C)CSCC(=O)OC
inactive: [16] 100 % of control | [17] 92 % of control | [18] 91 % of control

Cc1cc(-c2cccc3ccccc23)[n+]([O-])cc1C
inactive: [19] 101 % of control | [20] 101 % of control | [21] 90 % of control

CN1C2CCC1C(Br)C=C2c1ccccc1 (centres undefined)
inactive: dose: 50.0 mg/kg/injection, schedule: Q01DX005 (ip), vehicle: saline 109 % of control

Cc1cc(N)ccc1-n1cnc2c1c(=O)n(C)c(=O)n2C
inactive: dose: 50.0 mg/kg/injection, schedule: Q01DX005 (ip), vehicle: water 109 % of control | dose: 100.0 mg/kg/injection, schedule: Q01DX005 (ip), vehicle: water 111 % of control

C1=C(/c2ccccc2)NCCN=C(c2ccccc2)CS/1
inactive: [19] 104 % of control | [20] 101 % of control | [21] 101 % of control

COc1cc(OC)cc(C(C)(C)C)c1
inactive: [16] 97 % of control | [17] 100 % of control | [18] 107 % of control

O=C(O)CC1CC(O)CC/C1=N\Nc1ccc([N+](=O)[O-])cc1[N+](=O)[O-] (centres undefined)
inactive: [19] 102 % of control | [20] 98 % of control | [21] 91 % of control

CCOC(=O)Nc1cc2c(cn1)[nH]c1ccccc12
inactive: [3] 105 % of control | [4] 114 % of control | [5] 112 % of control

O=C(CCCCC(=O)N/N=C/c1cccc([N+](=O)[O-])c1)N/N=C/c1cccc([N+](=O)[O-])c1
inactive: [3] 100 % of control | [4] 92 % of control | [5] 94 % of control

CCO/C(C)=[N+](/[O-])S(=O)(=O)c1c(C)cc(C)cc1C
inactive: dose: 100.0 mg/kg/injection, schedule: Q01DX001 (ip), vehicle: saline 103 % of control | dose: 200.0 mg/kg/injection, schedule: Q01DX001 (ip), vehicle: saline 100 % of control | dose: 400.0 mg/kg/injection, schedule: Q01DX001 (ip), vehicle: saline 104 % of control

CCCCN1C(=O)C2C3CCC(O3)C2C1=O (centres undefined)
inactive: [3] 100 % of control | [4] 92 % of control
